Active and inactive are the calls of the source.
Experiments:
Prothrombin = Prothrombin (Homo sapiens, UniProt P00734); assay: Thrombin 1536 HTS Dose Response Confirmation. [Related pubchem assays: 1046 (Thrombin 1536 HTS; hits were confirmed in this assay)]; format: functional
Coagulation factor XII = biological target: T1, Coagulation factor XII (Homo sapiens, UniProt P00748); format: functional;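 further: activated factor XIIa alpha cleaving a fluorogenic AMC peptide substrate; inhibitor potency from loss of enzyme activity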
T1 sequence (P00748 whole entry): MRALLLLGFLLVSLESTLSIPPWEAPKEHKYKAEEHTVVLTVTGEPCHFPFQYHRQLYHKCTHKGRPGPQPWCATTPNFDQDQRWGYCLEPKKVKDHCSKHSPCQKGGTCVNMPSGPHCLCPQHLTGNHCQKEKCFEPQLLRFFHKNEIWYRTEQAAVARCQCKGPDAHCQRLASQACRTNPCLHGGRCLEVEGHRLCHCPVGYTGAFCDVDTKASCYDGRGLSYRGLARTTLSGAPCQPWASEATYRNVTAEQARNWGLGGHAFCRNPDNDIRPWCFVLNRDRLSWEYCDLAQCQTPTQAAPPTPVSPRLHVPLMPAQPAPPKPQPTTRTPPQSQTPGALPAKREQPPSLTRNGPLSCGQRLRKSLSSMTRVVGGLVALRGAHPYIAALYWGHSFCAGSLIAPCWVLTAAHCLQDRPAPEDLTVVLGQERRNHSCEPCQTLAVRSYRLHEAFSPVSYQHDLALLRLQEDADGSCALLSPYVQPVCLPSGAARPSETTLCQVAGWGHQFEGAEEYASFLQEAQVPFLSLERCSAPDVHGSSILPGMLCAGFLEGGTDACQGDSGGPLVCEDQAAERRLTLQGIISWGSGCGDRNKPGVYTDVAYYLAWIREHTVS

[1] = biological target: T2, Methionyl-tRNA synthetase, putative (Trypanosoma brucei brucei, UniProt Q38C91); format: functional, Trypanosoma brucei brucei strain 927/4 GUTat10.1
T2 sequence (Q38C91 whole entry): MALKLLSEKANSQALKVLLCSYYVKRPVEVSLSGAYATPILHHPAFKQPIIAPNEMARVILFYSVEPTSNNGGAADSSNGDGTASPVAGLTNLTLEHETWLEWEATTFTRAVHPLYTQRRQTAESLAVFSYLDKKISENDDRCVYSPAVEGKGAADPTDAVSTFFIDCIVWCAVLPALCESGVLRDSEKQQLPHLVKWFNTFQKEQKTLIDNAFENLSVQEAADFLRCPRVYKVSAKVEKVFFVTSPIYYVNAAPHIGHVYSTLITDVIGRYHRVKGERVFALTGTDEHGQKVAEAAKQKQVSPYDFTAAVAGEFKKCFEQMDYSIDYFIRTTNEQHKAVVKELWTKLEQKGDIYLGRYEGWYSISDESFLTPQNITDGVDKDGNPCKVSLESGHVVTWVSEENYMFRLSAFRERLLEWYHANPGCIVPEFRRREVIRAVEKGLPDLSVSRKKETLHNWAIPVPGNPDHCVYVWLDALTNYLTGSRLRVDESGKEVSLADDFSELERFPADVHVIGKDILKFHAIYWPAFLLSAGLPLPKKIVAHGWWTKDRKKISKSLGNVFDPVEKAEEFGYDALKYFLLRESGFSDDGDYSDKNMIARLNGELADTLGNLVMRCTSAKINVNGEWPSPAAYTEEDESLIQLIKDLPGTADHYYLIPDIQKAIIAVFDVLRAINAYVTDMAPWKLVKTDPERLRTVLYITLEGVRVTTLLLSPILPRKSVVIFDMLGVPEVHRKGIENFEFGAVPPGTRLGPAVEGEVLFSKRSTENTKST

[2] = Counterscreen for inhibitors of Trypanosoma brucei methionyl tRNA synthetase (MetRS): Luminescence-based cell-based high throughput dose response assay to identify compounds that are cytotoxic to Jurkat human T lymphocyte cells.; format: functional
[3] = biological target: T2, Methionyl-tRNA synthetase, putative; format: functional, Trypanosoma brucei brucei strain 927/4 GUTat10.1; remark: listed apart in the source
[4] = biological target: T3, Apoptotic protease-activating factor 1 (Homo sapiens, UniProt O14727); format: functional
T3 sequence (O14727 whole entry): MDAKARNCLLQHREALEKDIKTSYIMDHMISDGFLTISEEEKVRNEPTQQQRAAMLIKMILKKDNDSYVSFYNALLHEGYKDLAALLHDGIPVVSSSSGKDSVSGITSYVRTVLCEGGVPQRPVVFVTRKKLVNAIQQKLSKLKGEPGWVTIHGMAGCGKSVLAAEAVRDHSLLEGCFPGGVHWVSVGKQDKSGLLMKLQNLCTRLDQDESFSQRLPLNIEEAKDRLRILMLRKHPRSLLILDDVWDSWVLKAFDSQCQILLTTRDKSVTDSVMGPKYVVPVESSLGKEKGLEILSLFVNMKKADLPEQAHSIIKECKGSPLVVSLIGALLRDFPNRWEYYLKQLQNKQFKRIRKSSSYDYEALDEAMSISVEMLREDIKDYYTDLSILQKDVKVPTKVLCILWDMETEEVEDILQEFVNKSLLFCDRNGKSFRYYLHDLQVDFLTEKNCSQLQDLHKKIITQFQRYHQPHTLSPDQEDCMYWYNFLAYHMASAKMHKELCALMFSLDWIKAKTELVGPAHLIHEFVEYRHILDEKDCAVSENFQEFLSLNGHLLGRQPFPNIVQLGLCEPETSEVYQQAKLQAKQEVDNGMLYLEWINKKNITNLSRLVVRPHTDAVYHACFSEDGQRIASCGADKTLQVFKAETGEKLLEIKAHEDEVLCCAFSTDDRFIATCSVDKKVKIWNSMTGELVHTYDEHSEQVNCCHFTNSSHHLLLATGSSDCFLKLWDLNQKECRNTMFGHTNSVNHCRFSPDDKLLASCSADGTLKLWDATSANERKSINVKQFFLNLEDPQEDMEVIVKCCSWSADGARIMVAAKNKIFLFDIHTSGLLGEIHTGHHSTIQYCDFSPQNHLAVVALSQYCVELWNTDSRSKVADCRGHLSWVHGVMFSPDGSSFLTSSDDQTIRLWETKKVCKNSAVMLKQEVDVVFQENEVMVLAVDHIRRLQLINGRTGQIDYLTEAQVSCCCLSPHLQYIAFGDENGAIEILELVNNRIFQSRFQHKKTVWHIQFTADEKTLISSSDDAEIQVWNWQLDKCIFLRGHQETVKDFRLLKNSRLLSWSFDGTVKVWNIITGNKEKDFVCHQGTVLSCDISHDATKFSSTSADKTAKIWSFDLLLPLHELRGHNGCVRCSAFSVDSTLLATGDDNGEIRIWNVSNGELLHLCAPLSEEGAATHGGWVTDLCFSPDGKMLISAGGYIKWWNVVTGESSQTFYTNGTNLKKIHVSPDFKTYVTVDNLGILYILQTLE

[5] = biological target: T4, Adenosylmethionine-8-amino-7-oxononanoate aminotransferase (Mycobacterium tuberculosis, UniProt P9WQ81); assay: Mycobacterium tuberculosis BioA enzyme inhibitor Measured in Biochemical System Using Plate Reader - 2163-02_Inhibitor_Dose_CherryPick_Activity.; format: functional, Mycobacterium tuberculosis UT205
T4 sequence (P9WQ81 whole entry): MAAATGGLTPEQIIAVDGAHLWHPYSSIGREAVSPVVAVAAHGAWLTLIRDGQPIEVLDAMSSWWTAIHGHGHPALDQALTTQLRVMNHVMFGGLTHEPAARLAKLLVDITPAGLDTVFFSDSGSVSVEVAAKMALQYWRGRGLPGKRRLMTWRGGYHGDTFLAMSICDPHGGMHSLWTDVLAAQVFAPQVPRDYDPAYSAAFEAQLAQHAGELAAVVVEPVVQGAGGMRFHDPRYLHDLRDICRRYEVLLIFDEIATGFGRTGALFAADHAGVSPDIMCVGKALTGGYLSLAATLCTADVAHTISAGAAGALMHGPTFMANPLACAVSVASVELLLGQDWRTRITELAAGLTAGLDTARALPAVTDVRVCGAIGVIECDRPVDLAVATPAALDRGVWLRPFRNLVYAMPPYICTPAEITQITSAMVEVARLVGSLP

Cytochrome P450 3A4 = Cytochrome P450 3A4 (Homo sapiens, UniProt P08684);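 further: CYP3A4 tested as one member of a cytochrome P450 panel screen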
Cytochrome P450 2D6 = Cytochrome P450 2D6 (Homo sapiens, UniProt P10635);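 further: CYP2D6 member of a cytochrome P450 panel assay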
Large T antigen = Large T antigen (Simian virus 40, UniProt P03070); format: functional, Betapolyomavirus macacae;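 further: Confirmatory-stage PubChem screen for compounds that inhibit SV40 T antigen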
[6] = biological target: FAD-linked sulfhydryl oxidase ALR (Homo sapiens, UniProt P55789); assay: inhibitors of human ALR sulfhydryl oxidase, dose response, biochemical, H2O2 detection, luminescence, cherry-pick (AID 493248)
Vero [7] = assay: cells; format: functional; settings: Chlorocebus sabaeus
Vero [8] = assay: cells; format: functional, cell-based; settings: Chlorocebus sabaeus
Cytochrome P450 1A2 = biological target: T5, Cytochrome P450 1A2 (Homo sapiens, UniProt P05177);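 further: PubChem cytochrome P450 panel assay, CYP1A2 panel member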
T5 sequence (P05177 whole entry): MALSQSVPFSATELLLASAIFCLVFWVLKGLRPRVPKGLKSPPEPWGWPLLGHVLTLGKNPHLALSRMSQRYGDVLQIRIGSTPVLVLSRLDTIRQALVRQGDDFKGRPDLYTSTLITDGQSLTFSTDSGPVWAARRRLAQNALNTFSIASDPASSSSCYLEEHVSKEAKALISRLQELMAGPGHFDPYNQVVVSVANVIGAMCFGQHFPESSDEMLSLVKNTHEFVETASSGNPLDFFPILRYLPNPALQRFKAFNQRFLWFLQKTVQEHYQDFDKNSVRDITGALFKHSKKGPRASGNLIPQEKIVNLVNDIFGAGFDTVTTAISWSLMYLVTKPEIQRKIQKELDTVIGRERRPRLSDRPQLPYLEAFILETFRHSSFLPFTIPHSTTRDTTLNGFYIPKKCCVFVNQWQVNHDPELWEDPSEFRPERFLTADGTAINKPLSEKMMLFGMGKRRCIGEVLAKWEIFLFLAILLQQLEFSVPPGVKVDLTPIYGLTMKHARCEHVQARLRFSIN

[9] = intracellular Trypanosoma cruzi inhibitors in host cells – cell-based, plate reader, cherry-pick samples, set 3, dose response (AID 651818); format: functional;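 further: compounds incubated with infected cells for about four days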
[10] = Luminescence Cell-Based Dose Confirmation HTS to Identify Activators of 5'UTR Stem-Loop Driven Alpha-Synuclein mRNA Translation in H4 Neuroglioblastoma Cells. [Related pubchem assays: 1829 (Project Summary), 1814 (Primary HTS)]; format: functional
[11] = Luminescence Cell-Based Dose Response HTS to Identify Activators of Luciferase Translation or Activity in H4 […] Cells. [Related pubchem assays: 1829 (Project Summary), 1814 (Primary HTS)]; format: functional
H4 = assay: Luminescence Cell-Based Dose Response HTS to Identify Activators of 5'UTR Stem-Loop Driven Prion Protein mRNA Translation in H4 Neuroglioblastoma Cells. [Related pubchem assays: 1829 (Project Summary), 1814 (Primary HTS)]; format: functional; settings: Homo sapiens

Chain of Cytochrome P450 3A4 (P08684 whole entry): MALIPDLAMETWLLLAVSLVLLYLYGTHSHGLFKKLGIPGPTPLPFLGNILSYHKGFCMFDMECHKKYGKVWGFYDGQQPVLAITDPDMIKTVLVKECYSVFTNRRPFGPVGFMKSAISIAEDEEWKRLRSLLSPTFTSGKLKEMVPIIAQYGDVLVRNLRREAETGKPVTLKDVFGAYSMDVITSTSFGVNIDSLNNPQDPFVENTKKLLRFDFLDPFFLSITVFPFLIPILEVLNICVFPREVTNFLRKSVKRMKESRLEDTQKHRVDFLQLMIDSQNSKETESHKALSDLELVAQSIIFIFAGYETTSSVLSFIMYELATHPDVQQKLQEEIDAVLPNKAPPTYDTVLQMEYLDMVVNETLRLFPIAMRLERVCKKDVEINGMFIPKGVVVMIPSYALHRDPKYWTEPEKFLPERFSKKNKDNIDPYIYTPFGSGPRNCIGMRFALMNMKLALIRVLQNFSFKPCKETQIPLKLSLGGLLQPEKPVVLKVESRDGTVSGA
Chain of Cytochrome P450 2D6 (P10635 whole entry): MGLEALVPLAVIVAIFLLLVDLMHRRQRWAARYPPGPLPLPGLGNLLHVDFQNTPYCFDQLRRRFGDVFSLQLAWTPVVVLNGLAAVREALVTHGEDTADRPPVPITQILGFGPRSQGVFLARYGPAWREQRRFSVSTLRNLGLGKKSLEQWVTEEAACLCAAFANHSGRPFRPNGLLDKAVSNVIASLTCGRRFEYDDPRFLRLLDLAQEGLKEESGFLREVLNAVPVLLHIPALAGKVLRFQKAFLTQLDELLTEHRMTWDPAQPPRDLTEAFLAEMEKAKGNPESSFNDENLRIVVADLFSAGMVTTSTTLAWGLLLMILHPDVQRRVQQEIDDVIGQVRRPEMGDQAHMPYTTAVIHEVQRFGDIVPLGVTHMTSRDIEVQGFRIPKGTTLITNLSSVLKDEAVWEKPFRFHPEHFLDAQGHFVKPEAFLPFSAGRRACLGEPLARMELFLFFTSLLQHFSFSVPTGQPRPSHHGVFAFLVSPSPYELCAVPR
Chain of Large T antigen (P03070 whole entry): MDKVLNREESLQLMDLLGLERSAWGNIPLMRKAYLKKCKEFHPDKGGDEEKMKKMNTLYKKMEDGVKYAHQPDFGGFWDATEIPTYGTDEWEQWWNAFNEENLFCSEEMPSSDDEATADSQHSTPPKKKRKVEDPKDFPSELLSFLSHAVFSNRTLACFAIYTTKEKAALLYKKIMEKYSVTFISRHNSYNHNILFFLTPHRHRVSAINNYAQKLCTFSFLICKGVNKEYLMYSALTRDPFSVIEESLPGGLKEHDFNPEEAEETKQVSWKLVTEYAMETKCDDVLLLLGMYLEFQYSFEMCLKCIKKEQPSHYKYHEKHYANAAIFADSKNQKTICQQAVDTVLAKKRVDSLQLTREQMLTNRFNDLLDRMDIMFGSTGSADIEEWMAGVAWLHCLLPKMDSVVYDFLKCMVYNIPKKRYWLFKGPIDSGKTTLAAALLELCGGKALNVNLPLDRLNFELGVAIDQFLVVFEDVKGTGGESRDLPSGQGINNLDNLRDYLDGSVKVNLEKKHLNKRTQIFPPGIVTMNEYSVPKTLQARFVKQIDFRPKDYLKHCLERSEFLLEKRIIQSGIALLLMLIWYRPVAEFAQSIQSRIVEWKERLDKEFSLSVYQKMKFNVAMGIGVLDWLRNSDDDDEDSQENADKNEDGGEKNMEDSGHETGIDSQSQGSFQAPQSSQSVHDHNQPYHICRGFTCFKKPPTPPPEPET
Chain of FAD-linked sulfhydryl oxidase ALR (P55789 whole entry): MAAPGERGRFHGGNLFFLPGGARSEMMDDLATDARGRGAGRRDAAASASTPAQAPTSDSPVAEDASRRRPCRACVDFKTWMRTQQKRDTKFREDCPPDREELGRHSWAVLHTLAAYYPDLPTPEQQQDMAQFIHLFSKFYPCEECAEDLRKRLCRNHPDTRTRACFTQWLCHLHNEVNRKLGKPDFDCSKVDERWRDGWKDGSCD

Structure (SMILES): O=C(COC(=O)c1ccc(O)cc1)NCCCc1ccccc1
- IC50 (Prothrombin): > 50 µM (not active)
- IC50 (Coagulation factor XII): > 50 µM (inactive)

Structure (SMILES): O=C(COC(=O)CCCOc1ccc(Cl)cc1Cl)NCc1ccccc1
- IC50 [1]: 11.3 µM (inactive)
- IC50 [2]: 83.3 µM (inactive)
- IC50 [3]: 16.4 µM (inactive)

Structure (SMILES): N#Cc1c(N(CCO)CCO)nc(N)c2c(N)nc3c(c12)CC(=O)N3Cc1cccs1
- IC50 [4]: 20.7 µM (active)

Structure (SMILES): O=C(Nc1ncc2c(n1)CC(c1cccc(Cl)c1)CC2=O)c1ccco1 (centres undefined)
- AC50 [5]: 1.95 µM (active)

Structure (SMILES): CCCc1nnc(NC(=O)CCC(=O)N2CCN(c3ccccn3)CC2)s1
- AC50 (Cytochrome P450 3A4): inconclusive

Structure (SMILES): N=C(NOC(=O)c1ccc(Cl)c([N+](=O)[O-])c1)c1ccccn1
- IC50 (Coagulation factor XII): > 50 µM (inactive)

Structure (SMILES): COc1ccc(-c2nc3cnc(N4CCN(C)CC4)nc3n(CCc3ccccc3)c2=O)cc1
- AC50 (Cytochrome P450 3A4): inconclusive
- AC50 (Cytochrome P450 2D6): 25.1 µM (inconclusive)

Structure (SMILES): CCN(CC)c1ccc(N/C=C2/C(=O)NC(=O)N(c3ccccc3C)C2=O)cc1
- IC50 (Large T antigen): > 100 µM (active)
- AC50 [6]: 1.46 µM (active)

Structure (SMILES): O=C(c1cccc(S(=O)(=O)N2CCc3ccccc32)c1)N1CCN(c2ccccn2)CC1
- CC50 (Vero [7]): 18.9 µM (active)
- IC50 (Vero [8]): 6.82 µM (active)

Structure (SMILES): COc1cccc(NC(=O)CN(C)CC(=O)Nc2ccc(Br)cc2)c1
- IC50 [1]: 51.2 µM (inactive)
- IC50 [2]: 83.3 µM (inactive)
- IC50 [3]: 13.2 µM (inactive)

Structure (SMILES): COc1cc(C(=O)N2CCN(C(=O)c3ccccc3)CC2)cc(OC)c1OC
- AC50 (Cytochrome P450 3A4): inconclusive
- AC50 (Cytochrome P450 1A2): 2.51 µM (inconclusive)

Structure (SMILES): N#Cc1ccc(C(=O)Nc2ccc(N3CCN(C(=O)c4ccco4)CC3)cc2)c(F)c1
- AC50 (Cytochrome P450 3A4): inconclusive

Structure (SMILES): CCOc1ccc(CCNC(=O)c2cnc(C)cn2)cc1OCC
- AC50 [5]: 2.54 µM (active)

Structure (SMILES): COc1ccc(S(=O)(=O)N2CCCC2C(=O)Nn2cnnc2)cc1 (centres undefined)
- IC50 (Coagulation factor XII): > 50 µM (inactive)

Structure (SMILES): CCc1nc2ccc(Br)cc2c(=O)n1-c1ccccc1C(F)(F)F
- AC50 [5]: 0.966 µM (active)

Structure (SMILES): C[C@H](CO)N1C[C@H](C)[C@H](CN(C)Cc2ccc(Oc3ccccc3)cc2)Oc2c(NC(=O)Nc3cccc4ccccc34)cccc2C1=O
- AC50 [9]: 3.24 µM (active)

Structure (SMILES): C[C@H]1CN([C@@H](C)CO)C(=O)Cc2cc(NC(=O)Nc3ccc(C(F)(F)F)cc3)ccc2O[C@H]1CN(C)Cc1ccc2c(c1)OCO2
- AC50 [9]: 4.99 µM (active)

Structure (SMILES): C[C@@H]1CN([C@H](C)CO)C(=O)Cc2cc(NS(=O)(=O)c3cccs3)ccc2O[C@@H]1CN(C)Cc1ccc(C(=O)Nc2ccccc2N)cc1
- AC50 [9]: 4.03 µM (active)

Structure (SMILES): CS(=O)(=O)N1[C@H](C(=O)NCc2ccncc2)[C@@H](CO)[C@@H]2Cn3c(ccc(C4=CCCCC4)c3=O)[C@@H]21
- AC50 [5]: 6.52 µM (active)

Structure (SMILES): C[C@@H]1CN([C@H](C)CO)C(=O)Cc2cc(NC(=O)Cc3cn(C)c4ccccc34)ccc2O[C@H]1CN(C)Cc1ccc(C(F)(F)F)cc1
- AC50 [9]: 3.42 µM (active)

Structure (SMILES): CCOC(=O)/C(C#N)=C/N=c1/ccc(C)cn1C
- EC50 [10]: 53.5 µM (active)
- IC50 (Coagulation factor XII): > 50 µM (inconclusive)
- EC50 [11]: 23.8 µM (active)
- EC50 (H4): > 120 µM (not active)

Structure (SMILES): C/C(=N/OCO/N=C(\C)c1ccccc1)c1ccccc1
- IC50 (Vero [8]): > 25 µM (active)

Reference: ChEMBL document CHEMBL1201862, “PubChem BioAssay data set” (2004)
